The source made the active and inactive calls. No cut-off for these calls is given here.
Tests used:
[1] = molecular target: Mitogen-activated protein kinase kinase kinase kinase 4 (Homo sapiens) (UniProt O95819); assay: Inhibition of recombinant human MAP4K4 (1 to 328 residues) at 10 uM using RLGRDKYKTLRQIRQ as substrate measured after 40 mins in presence of [gamma33P]ATP by scintillation counting method relative to control
[2] = molecular target: Serine/threonine-protein kinase D2 (Homo sapiens) (UniProt Q9BZL6); assay: Inhibition of full-length recombinant human PKD2 at 10 uM using KKLNRTLSVA as substrate after 40 mins by in presence of [gamma33P]ATP by scintillation counting method relative to control
[3] = molecular target: Inhibitor of nuclear factor kappa-B kinase subunit alpha (Homo sapiens) (UniProt O15111); assay: Inhibition of full length recombinant human IKKalpha at 10 uM after 40 mins in presence of [gamma33P]ATP by scintillation counting method relative to control
[4] = test system: Transcriptional enhancer factor TEF-3 (Homo sapiens), Q15561 [C367A]; assay: Binding affinity to TEAD4-YBD C367A mutant (unknown origin) assessed as change in melting temperature by SYPRO-dye based thermal shift assay
[5] = molecular target: Tyrosine-protein kinase ABL2 (Homo sapiens) (UniProt P42684); assay: Inhibition of recombinant human ARG (38 to end residues) at 10 uM using EAIYAAPFAKKK as substrate measured after 40 mins in presence of [gamma33P]ATP by scintillation counting method relative to control
[6] = molecular target: Serine/threonine-protein kinase 17B (Homo sapiens) (UniProt O94768); assay: Inhibition of full-length recombinant human DRAK2 at 10 uM using KKRPQRRYSNVF as substrate after 120 mins by in presence of [gamma33P]ATP by scintillation counting method relative to control
[7] = molecular target: Proto-oncogene tyrosine-protein kinase Src (Homo sapiens) (UniProt P12931); assay: Inhibition of recombinant human Src (1 to 530 residues) at 10 uM using GGEEEEYFELVKKKK as substrate measured after 40 mins in presence of [gamma33P]ATP by scintillation counting method relative to control
Homo sapiens [8] = organism: Homo sapiens; assay: Inhibition of recombinant human Flt4 V1128L/H1146R mutant (800 to end residues) at 10 uM using GGEEEEYFELVKKKK as substrate measured after 40 mins in presence of [gamma33P]ATP by scintillation counting method relative to control
[9] = molecular target: LIM domain kinase 2 (Homo sapiens) (UniProt P53671); assay: Inhibition of human LIMK2 at 10 uM by radiometric assay relative to control
[10] = molecular target: Bromodomain-containing protein 4 (Homo sapiens) (UniProt O60885); assay: Inhibition of human BRD4-BD1 at 10 uM relative to control
[11] = molecular target: Serine/threonine-protein kinase 3 (Homo sapiens) (UniProt Q13188); assay: Inhibition of recombinant full-length human MST2 (2 to end residues) at 10 uM using myelin basic protein as substrate measured after 40 mins in presence of [gamma33P]ATP by scintillation counting method relative to control
[12] = molecular target: TGF-beta receptor type-2 (Homo sapiens) (UniProt P37173); assay: Inhibition of recombinant human TGFBR2 (188 to end residues) at 10 uM using myelin basic protein as substrate measured after 120 mins in presence of [gamm33P]ATP by scintillation counting method relative to control
[13] = molecular target: Cytoplasmic tyrosine-protein kinase BMX (Homo sapiens) (UniProt P51813); assay: Inhibition of full-length recombinant human BMX at 10 uM using poly(Glu, Tyr) 4:1 as substrate measured after 40 mins in presence of [gamma33P]ATP by scintillation counting method relative to control
[14] = molecular target: cGMP-dependent protein kinase 1 (Homo sapiens) (UniProt Q13976); assay: Inhibition of full-length recombinant human PKG1alpha at 10 uM using RRRLSFAEPG as substrate after 40 mins by in presence of [gamma33P]ATP by scintillation counting method relative to control
[15] = molecular target: Serine/threonine-protein kinase Chk2 (Homo sapiens) (UniProt O96017); assay: Inhibition of recombinant human CHK2 (5 to end residues) at 10 uM using KKKVSRSGLYRSPSMPENLNRPR as substrate measured after 40 mins in presence of [gamma33P]ATP by scintillation counting method relative to control
[16] = molecular target: Serine/threonine-protein kinase ULK2 (Homo sapiens) (UniProt Q8IYT8); assay: Inhibition of recombinant human ULK2 (1 to 306 residues) at 10 uM using casein as substrate measured after 40 mins in presence of [gamm33P]ATP by scintillation counting method relative to control
[17] = molecular target: Mitogen-activated protein kinase kinase kinase 7 (Homo sapiens) (UniProt O43318); assay: Inhibition of recombinant human TAK1 (1 to 303 residues) at 10 uM using casein as substrate measured after 40 mins in presence of [gamma33P]ATP by scintillation counting method relative to control
[18] = molecular target: Mitogen-activated protein kinase kinase kinase kinase 3 (Homo sapiens) (UniProt Q8IVH8); assay: Inhibition of recombinant human MAP4K3 (1 to 291 residues) at 10 uM using RLGRDKYKTLRQIRQ as substrate measured after 40 mins in presence of [gamma33P]ATP by scintillation counting method relative to control
Homo sapiens [19] = organism: Homo sapiens; assay: Inhibition of TEAD (unknown origin) expresssed in HEK293T cells assessed as reduction in luciferase activity at 10 to 20 uM by dual-luciferase reporter gene assay; format: cell-based
[20] = molecular target: Tyrosine-protein kinase SYK (Homo sapiens) (UniProt P43405); assay: Inhibition of full length recombinant human Syk at 10 uM using poly(Glu, Tyr) 4:1 as substrate after 40 mins in presence of [gamma33P]ATP by scintillation counting method relative to control
[21] = test system: Angiopoietin-1 receptor (Homo sapiens), Q02763 [Q939H,Q940H]; assay: Inhibition of human Tie2 Q939H/Q940H mutant (771 to end residues) at 10 uM using poly(Glu, Tyr) 4:1 as substrate measured after 40 mins in presence of [gamma33P]ATP by scintillation counting method relative to control
[22] = molecular target: Insulin receptor (Homo sapiens) (UniProt P06213); assay: Inhibition of recombinant human IR activated (1005 to 1310 residues) at 10 uM using KKSRGDYMTMQIG as substrate after 40 mins in presence of [gamma33P]ATP by scintillation counting method relative to control
[23] = molecular target: Proto-oncogene tyrosine-protein kinase Src (Homo sapiens) (UniProt P12931); assay: Inhibition of recombinant full length human cSRC at 10 uM using KVEKIGEGTYGVVYK as substrate measured after 40 mins in presence of [gamma33P]ATP by scintillation counting method relative to control
[24] = molecular target: Leucine-rich repeat serine/threonine-protein kinase 2 (Homo sapiens) (UniProt Q5S007); assay: Inhibition of recombinant human LRRK2 (970 to end residues) at 10 uM using RLGRDKYKTLRQIRQ as substrate measured after 40 mins in presence of [gamma33P]ATP by scintillation counting method relative to control
[25] = molecular target: CREB-binding protein (Homo sapiens) (UniProt Q92793); assay: Inhibition of human CBP-BRD at 10 uM relative to control

Proto-oncogene tyrosine-protein kinase Src (Homo sapiens), sequence (P12931 2-536 limits assumed): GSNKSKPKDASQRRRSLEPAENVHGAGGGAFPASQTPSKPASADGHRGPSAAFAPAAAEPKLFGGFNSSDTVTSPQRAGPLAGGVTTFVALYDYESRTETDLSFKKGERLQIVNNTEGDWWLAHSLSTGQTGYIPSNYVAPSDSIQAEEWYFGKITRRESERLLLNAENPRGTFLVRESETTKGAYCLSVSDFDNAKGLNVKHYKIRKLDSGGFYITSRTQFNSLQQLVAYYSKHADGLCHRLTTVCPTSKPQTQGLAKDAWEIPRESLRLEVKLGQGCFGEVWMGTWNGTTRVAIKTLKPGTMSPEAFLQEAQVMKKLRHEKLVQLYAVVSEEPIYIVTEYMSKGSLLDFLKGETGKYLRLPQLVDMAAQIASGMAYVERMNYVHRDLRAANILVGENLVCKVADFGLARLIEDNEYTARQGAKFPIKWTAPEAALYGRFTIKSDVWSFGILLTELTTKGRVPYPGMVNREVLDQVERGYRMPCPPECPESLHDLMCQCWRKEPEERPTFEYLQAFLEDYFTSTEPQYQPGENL
Inhibitor of nuclear factor kappa-B kinase subunit alpha (Homo sapiens), sequence (O15111 whole entry): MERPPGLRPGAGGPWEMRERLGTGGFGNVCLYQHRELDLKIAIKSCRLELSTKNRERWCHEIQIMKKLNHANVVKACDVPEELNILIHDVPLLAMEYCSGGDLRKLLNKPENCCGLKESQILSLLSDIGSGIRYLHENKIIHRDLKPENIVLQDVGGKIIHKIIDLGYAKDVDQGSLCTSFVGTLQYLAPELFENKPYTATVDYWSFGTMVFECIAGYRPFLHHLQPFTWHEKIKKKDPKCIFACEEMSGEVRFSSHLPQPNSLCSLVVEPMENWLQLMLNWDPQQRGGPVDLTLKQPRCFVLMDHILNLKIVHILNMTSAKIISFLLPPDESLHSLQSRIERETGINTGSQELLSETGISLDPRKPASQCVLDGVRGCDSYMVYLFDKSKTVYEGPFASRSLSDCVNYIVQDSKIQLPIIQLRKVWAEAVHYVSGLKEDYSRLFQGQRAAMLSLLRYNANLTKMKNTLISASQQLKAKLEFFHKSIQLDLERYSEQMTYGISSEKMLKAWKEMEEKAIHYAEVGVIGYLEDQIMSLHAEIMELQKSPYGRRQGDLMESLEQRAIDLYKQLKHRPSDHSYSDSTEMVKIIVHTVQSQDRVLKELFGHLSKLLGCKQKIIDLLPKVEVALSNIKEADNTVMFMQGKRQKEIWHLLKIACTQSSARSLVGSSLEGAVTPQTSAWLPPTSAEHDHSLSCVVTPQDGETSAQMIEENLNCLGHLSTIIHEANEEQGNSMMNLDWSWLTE
Mitogen-activated protein kinase kinase kinase 7 (Homo sapiens), sequence (O43318 whole entry, the tested form may be a part): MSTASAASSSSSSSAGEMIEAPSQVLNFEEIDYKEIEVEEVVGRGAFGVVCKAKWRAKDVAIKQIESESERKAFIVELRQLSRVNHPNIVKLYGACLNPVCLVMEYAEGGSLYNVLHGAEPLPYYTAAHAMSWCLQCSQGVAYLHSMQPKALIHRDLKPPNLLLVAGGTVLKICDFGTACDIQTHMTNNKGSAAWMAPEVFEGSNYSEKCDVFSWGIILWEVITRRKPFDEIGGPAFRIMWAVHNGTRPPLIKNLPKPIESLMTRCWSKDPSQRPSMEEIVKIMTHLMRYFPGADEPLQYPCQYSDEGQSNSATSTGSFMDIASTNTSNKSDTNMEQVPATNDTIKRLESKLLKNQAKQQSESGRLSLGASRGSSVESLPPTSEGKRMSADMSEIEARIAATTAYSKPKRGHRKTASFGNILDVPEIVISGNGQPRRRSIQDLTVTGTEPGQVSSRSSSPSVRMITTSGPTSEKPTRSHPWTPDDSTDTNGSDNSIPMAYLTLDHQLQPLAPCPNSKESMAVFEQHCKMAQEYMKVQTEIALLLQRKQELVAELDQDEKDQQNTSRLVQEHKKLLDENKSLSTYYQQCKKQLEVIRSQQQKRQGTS
Serine/threonine-protein kinase Chk2 (Homo sapiens), sequence (O96017 whole entry, the tested form may be a part): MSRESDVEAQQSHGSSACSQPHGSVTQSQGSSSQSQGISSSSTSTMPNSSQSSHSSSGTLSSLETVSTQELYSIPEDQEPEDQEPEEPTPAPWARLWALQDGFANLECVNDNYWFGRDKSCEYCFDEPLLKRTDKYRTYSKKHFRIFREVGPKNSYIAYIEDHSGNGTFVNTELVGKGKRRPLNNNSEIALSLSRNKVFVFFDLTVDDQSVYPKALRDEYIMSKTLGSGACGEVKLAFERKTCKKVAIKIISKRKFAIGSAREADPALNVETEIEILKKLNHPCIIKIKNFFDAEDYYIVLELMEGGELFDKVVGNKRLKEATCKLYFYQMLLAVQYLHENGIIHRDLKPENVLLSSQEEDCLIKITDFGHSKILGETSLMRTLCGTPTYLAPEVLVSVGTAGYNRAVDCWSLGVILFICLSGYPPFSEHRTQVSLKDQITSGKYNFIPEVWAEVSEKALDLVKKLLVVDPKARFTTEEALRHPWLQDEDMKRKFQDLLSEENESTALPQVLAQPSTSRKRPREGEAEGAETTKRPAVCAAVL
Mitogen-activated protein kinase kinase kinase kinase 3 (Homo sapiens), sequence (Q8IVH8 whole entry, the tested form may be a part): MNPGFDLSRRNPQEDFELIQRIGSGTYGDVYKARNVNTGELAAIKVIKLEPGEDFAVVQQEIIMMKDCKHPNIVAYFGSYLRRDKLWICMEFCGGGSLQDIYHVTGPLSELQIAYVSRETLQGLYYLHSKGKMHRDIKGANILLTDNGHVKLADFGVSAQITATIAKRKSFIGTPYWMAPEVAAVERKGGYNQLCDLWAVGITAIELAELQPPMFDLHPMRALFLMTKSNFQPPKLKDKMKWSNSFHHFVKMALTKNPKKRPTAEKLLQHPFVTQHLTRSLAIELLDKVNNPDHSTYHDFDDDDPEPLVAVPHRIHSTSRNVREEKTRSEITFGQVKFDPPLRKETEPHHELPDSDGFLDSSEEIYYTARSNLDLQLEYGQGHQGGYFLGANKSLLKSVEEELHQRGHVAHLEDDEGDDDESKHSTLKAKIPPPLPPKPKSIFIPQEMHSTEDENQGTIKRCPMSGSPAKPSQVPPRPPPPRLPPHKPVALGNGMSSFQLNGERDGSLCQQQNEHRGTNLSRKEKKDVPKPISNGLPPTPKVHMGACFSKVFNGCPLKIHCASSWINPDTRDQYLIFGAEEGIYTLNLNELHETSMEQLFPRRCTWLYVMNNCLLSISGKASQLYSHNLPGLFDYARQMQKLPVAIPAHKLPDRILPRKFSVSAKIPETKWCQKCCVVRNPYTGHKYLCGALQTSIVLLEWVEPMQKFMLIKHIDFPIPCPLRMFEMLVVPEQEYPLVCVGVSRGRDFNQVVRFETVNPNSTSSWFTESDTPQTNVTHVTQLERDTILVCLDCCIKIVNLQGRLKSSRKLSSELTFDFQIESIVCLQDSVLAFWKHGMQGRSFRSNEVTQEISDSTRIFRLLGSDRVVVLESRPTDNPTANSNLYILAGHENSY
cGMP-dependent protein kinase 1 (Homo sapiens), sequence (Q13976 whole entry): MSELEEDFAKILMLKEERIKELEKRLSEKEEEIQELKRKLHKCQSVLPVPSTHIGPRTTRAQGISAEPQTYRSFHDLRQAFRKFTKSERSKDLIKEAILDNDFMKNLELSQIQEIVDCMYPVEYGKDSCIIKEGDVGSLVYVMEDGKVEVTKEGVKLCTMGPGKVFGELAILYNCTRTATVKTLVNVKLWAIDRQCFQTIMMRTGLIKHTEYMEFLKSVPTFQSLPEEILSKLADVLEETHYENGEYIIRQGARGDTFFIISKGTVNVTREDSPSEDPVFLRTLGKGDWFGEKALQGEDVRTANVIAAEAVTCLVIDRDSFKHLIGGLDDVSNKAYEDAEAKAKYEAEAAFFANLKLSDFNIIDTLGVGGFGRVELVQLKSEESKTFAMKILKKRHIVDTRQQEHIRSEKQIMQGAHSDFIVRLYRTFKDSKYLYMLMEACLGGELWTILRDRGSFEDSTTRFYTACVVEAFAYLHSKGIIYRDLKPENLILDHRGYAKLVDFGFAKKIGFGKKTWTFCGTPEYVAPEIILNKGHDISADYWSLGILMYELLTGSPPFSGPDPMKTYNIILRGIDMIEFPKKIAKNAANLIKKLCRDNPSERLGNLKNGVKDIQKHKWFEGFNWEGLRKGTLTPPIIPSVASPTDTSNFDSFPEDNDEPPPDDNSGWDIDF
LIM domain kinase 2 (Homo sapiens), sequence (P53671 whole entry, looked up, the tested form may be a part): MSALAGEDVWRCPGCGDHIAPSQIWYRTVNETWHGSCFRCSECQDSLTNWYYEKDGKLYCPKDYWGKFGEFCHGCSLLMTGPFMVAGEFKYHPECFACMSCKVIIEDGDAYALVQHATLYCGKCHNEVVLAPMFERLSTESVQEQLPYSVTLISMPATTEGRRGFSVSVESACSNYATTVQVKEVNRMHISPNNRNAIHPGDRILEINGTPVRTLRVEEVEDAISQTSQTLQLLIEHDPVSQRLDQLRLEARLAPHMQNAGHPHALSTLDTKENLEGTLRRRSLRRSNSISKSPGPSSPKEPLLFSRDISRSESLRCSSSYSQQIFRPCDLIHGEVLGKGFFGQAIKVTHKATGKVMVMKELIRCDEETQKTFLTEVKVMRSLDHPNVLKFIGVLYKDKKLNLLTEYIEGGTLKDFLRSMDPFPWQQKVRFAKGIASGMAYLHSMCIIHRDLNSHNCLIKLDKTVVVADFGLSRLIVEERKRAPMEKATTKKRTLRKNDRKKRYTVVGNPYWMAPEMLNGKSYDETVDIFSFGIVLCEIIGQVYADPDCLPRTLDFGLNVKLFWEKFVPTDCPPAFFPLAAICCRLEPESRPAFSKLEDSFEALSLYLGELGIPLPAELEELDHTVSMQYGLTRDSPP
Serine/threonine-protein kinase 17B (Homo sapiens), sequence (O94768 whole entry, the tested form may be a part): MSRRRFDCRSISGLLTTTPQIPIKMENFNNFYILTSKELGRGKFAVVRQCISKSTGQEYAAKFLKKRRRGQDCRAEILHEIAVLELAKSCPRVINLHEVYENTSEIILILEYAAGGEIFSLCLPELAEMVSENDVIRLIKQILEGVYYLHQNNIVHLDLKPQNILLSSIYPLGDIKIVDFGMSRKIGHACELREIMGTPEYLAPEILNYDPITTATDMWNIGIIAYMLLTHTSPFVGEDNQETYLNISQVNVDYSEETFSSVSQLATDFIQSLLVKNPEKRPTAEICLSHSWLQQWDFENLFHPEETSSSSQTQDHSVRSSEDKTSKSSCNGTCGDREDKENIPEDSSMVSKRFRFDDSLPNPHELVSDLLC

C=CS(=O)(=O)Nc1ccc(Cc2ccc3ccccc3c2)cc1
inhibition [1]: 7% | inhibition [2]: -4% | inhibition [3]: -2% | ΔTm [4]: 1.2 °C | inhibition [5]: 16% | inhibition [6]: -3% | inhibition [7]: 17% | inhibition (Homo sapiens [8]): 15% | inhibition [9]: -8% | inhibition [10]: 10% | inhibition [11]: 2% | inhibition [12]: 9% | inhibition [13]: 19% | inhibition [14]: -6% | inhibition [15]: -7% | inhibition [16]: 2% | inhibition [17]: 5% | inhibition [18]: 9% | inhibition (Homo sapiens [19]): Active | inhibition [20]: -4% | inhibition [21]: 18% | inhibition [22]: 5% | inhibition [23]: -4% | inhibition [24]: -10% | inhibition [25]: 10%
